From US7091352B2, “Compounds substituted with bicyclic amino groups” (priority 2001, dated 2006)
Read-outs that look alike come from different tables or passages of the source.

Key:
TNFα production = assay: Inhibition of the production of TNFα in vitro in human whole blood (LPS stimulation, ELISA); format: cell-based; settings: read-out: Inhibitory Effect on TNFα Production IC50
Protocol: (§1) This test was performed according to the method of Hartman, et al. [D. A. Hartman, S. J. Ochalski and R. P. Carlson; The effects of anti-inflammatory and antiallergic drugs on cytokine release after stimulation of human whole blood by lipopolysaccharide and zymosan A: Inflamm. Res., 44, 269 (1995)].
(§2) Peripheral blood samples were collected in the presence of heparin from healthy adult volunteers. 1000 μl of whole blood were added to an Eppendorf tube to which 2 μl of a dimethyl sulfoxide solution of the test compound had been added in advance, after which 10 μl of lipopolysaccharide (E. coli 026: B6 origin, Difco) were added as a stimulant (final concentration of said lipopolysaccharide: 10 μg/ml). This was mixed well and then incubated for 6 hours at 37° C. in the presence of 5% CO2. At the end of the incubation, the mixture was cooled to 4° C. to stop the reaction, followed immediately by centrifuging for 5 minutes at 14,000 rpm to separate and collect the supernatant plasma. The IL-1β and TNFα produced and released into the plasma were measured using commercially available enzyme immunoassay (ELISA) kits [Cayman (IL-1β) and Genzyme (TNFα)]. […] The inhibitory effect [IC50 (μM)] on the production of IL-1β and TNFα was determined by the method of least squares from the amounts of the cytokines produced in the presence and absence of the test compound.

IL-1β production = assay: Inhibition of the production of IL-1β in vitro in human whole blood (LPS stimulation, ELISA); format: cell-based; settings: lipopolysaccharide 10 μg/ml, 6 hours at 37° C., plasma ELISA, read-out: Inhibitory Effect on IL-1β Production IC50
Protocol: as §1, §2

In the case of `CC1C[C@H]2C=C(c3n[nH]c(-c4ccc(F)cc4)c3-c3ccncc3)CCN2C1` (stereo partly drawn) [Example 12, 5-(4-Fluorophenyl)-3-[(8aS)-2-methyl-1,2,3,5,6,8a-hexahydroindolizin-7-yl]-4-(pyridin-4-yl)pyrazole], the IC50 (TNFα production; Homo sapiens, 6 h) is reported as 0.0026 µM.
`OC1(c2n[nH]c(-c3ccc(F)cc3)c2-c2ccncc2)CCN2CCCC2C1` (racemic) [Example 2, (±)-5-(4-Fluorophenyl)-3-(7-hydroxy-1,2,3,5,6,7,8,8a-octahydroindolizin-7-yl)-4-(pyridin-4-yl)pyrazole] was tested, and the IC50 (IL-1β production) was 0.035 µM and the IC50 (TNFα production; human whole blood, lipopolysaccharide 10 μg/ml, 6 hours at 37° C., plasma ELISA) was 0.07 µM.
